Converted amounts (≈) assume the structure as drawn. “And” between values parts separate entries of the source, which are not always exact repeats. Identical values can stand only once. Like-named read-outs stand apart in the source and are kept apart here.
What was measured:
[1] = tested on: Klebsiella pneumoniae ATCC 10031, CCM 4415; experiment: Antibacterial microdilution broth method (EUCAST)
[2] = tested on: Absidia corymbifera CCM 8077 (Lichtheimia corymbifera); experiment: Antifungal microdilution broth method (EUCAST); format: cell-based; conditions: read-out: MIC AC
[3] = tested on: Candida krusei ATCC 6258, CCM 8271; experiment: Antifungal microdilution broth method (EUCAST); format: cell-based; conditions: Pichia kudriavzevii, read-out: MIC CK
[4] = tested on: Escherichia coli ATCC 25922, CCM 3954; experiment: Antibacterial microdilution broth method (EUCAST); format: cell-based; conditions: read-out: MIC EC
[5] = tested on: Enterococcus faecalis ATCC 29212, CCM 4224; experiment: Antibacterial microdilution broth method (EUCAST); format: cell-based; conditions: read-out: MIC EF
[6] = tested on: Staphylococcus aureus methicillin resistant ATCC 43300, CCM 4750; experiment: microbe, parasite or virus in culture; format: cell-based; conditions: ATCC 43300 / CCM 4750 / MRSA, read-out: MIC MRSA
[7] = tested on: Staphylococcus aureus spp.aureus ATCC 29213, CCM 4223; experiment: Antibacterial microdilution broth method (EUCAST); format: cell-based; conditions: read-out: MIC SA
[8] = tested on: Mycobacterium tuberculosis H37Ra ITM-M006710 (ATCC 9431); experiment: Microdilution broth, modified Microplate Alamar Blue Assay, whole cell growth inhibition; format: cell-based; conditions: Mycobacterium tuberculosis, read-out: MIC Mtb H37Ra
[9] = tested on: Staphylococcus epidermidis ATCC 12228, CCM 4418; experiment: Antibacterial microdilution broth method (EUCAST); format: cell-based; conditions: read-out: MIC SE
[10] = tested on: Trichophyton interdigitale ATCC 9533, CCM 8377; experiment: Antifungal microdilution broth method (EUCAST); format: cell-based; conditions: read-out: MIC TI
[11] = tested on: Pseudomonas aeruginosa ATCC 27853, CCM 3955; experiment: Antibacterial microdilution broth method (EUCAST); format: cell-based; conditions: read-out: MIC PA
[12] = tested on: Mycobacterium aurum DSM 43999 (ATCC 23366); experiment: Microdilution broth, modified Microplate Alamar Blue Assay, whole cell growth inhibition; format: cell-based; conditions: Mycolicibacterium aurum, read-out: MIC Mycobacterium aurum
[13] = tested on: Candida parapsilosis ATCC 22019, CCM 8260; experiment: Antifungal microdilution broth method (EUCAST); format: cell-based; conditions: Lodderomyces parapsilosis, read-out: MIC CP
[14] = tested on: Aspergillus fumigatus ATCC 204305; experiment: Antifungal microdilution broth method (EUCAST); format: cell-based; conditions: read-out: MIC AF
[15] = tested on: Candida tropicalis ATCC 750, CCM 8264; experiment: Antifungal microdilution broth method (EUCAST); format: cell-based; conditions: read-out: MIC CT
HepG2 cells = experiment: HepG2 cytotoxicity, CellTiter 96 (MTS) assay; format: cell-based, human; conditions: for IC50: Homo sapiens, HepG2, 24 h, read-out: HepG2 IC50; for SI, selectivity index: IC50 (HepG2)/MIC against Mtb H37Ra (in µM)
[16] = tested on: Mycobacterium smegmatis DSM 43465 (ATCC 607); experiment: Microdilution broth, modified Microplate Alamar Blue Assay, whole cell growth inhibition; format: cell-based; conditions: Mycolicibacterium smegmatis, read-out: MIC Mycobacterium smegmatis
[17] = tested on: Aspergillus flavus CCM 8363; experiment: Antifungal microdilution broth method (EUCAST); format: cell-based; conditions: read-out: MIC AFla
[18] = tested on: Candida albicans ATCC 24433, CCM 8320; experiment: Antifungal microdilution broth method (EUCAST); format: cell-based; conditions: read-out: MIC CA
[19] = tested on: Acinetobacter baumanii ATCC 19606, DSM 30007; experiment: Antibacterial microdilution broth method (EUCAST); format: cell-based; conditions: Acinetobacter baumannii
[20] = in vitro, Middlebrook 7H9 broth, resazurin

Row | Structure (SMILES) | MIC KP ([1]; 24h) [µM] | MIC KP ([1]; 48h) [µM] | MIC ([2]; CCM8077, 24 h) [µM] | MIC ([2]; CCM8077, 48 h) [µM] | MIC ([3]; 24 h) [µM] | MIC ([3]; 48 h) [µM] | MIC ([4]; 24 h) [µM] | MIC ([4]; 48 h) [µM] | MIC ([5]; 24 h) [µM] | MIC ([5]; 48 h) [µM] | MIC ([6]; 24 h) [µM] | MIC ([6]; 48 h) [µM] | MIC ([7]; 24 h) [µM] | MIC ([7]; 48 h) [µM] | MIC [8, 20] [µg/mL] | MIC ([9]; 24 h) [µM] | MIC ([9]; 48 h) [µM] | MIC ([10]; 72 h) [µM] | MIC ([10]; 120 h) [µM] | melting point [°C] | also measured
1 | CCCCCCCNc1cnc(C(=O)Nc2ccc(CC)cc2)cn1 [Compound 5e, N-(4-ethylphenyl)-5-(heptylamino)pyrazine-2-carboxamide] | > 500 | > 500 | > 125 | > 125 | > 125 | > 125 | > 500 | > 500 | > 500 | > 500 | > 500 | > 500 | > 500 | > 500 | ≥ 500 | > 500 | > 500 | > 125 | > 125 | 131 to 132 | MIC ([11]; 72 h): > 500 µM; MIC ([11]; 120 h): > 500 µM; MIC [12]: ≥ 500 µg/mL; MIC ([13]; 24 h): > 125 µM; MIC ([13]; 48 h): > 125 µM; MIC ([14]; ATCC204305, 24 h): > 125 µM; MIC ([14]; ATCC204305, 48 h): > 125 µM; MIC ([15]; 24 h): > 125 µM; MIC ([15]; 48 h): > 125 µM; IC50 (HepG2 cells): > 25 µM; MIC [16]: ≥ 500 µg/mL; MIC ([17]; CCM8363, 24 h): > 125 µM; MIC ([17]; CCM8363, 48 h): > 125 µM; MIC ([18]; 24 h): > 125 µM; MIC ([18]; 48 h): > 125 µM; MIC ([19]; 24h): > 500 µM; MIC ([19]; 48h): > 500 µM
2 | CCCNc1cnc(C(=O)Nc2cccc(C(F)(F)F)c2)cn1 [Compound 1a, 5-(Propylamino)-N-(3-(trifluoromethyl)phenyl)pyrazine-2-carboxamide] | > 500 | > 500 | > 125 | > 125 | > 125 | > 125 | > 500 | > 500 | > 500 | > 500 | > 500 | > 500 | > 500 | > 500 | 6.25 | > 500 | > 500 | > 125 | > 125 | 155 to 156 | MIC ([11]; 72 h): > 500 µM; MIC ([11]; 120 h): > 500 µM; MIC [12]: ≥ 500 µg/mL; MIC ([13]; 24 h): > 125 µM; MIC ([13]; 48 h): > 125 µM; MIC ([14]; ATCC204305, 24 h): > 125 µM; MIC ([14]; ATCC204305, 48 h): > 125 µM; MIC ([15]; 24 h): > 125 µM; MIC ([15]; 48 h): > 125 µM; IC50 (HepG2 cells): > 25 µM; SI, selectivity index (HepG2 cells): >1.3; MIC [16]: ≥ 500 µg/mL; MIC ([17]; CCM8363, 24 h): > 125 µM; MIC ([17]; CCM8363, 48 h): > 125 µM; MIC ([18]; 24 h): > 125 µM; MIC ([18]; 48 h): > 125 µM; MIC ([19]; 24h): > 500 µM; MIC ([19]; 48h): > 500 µM
3 | CCCCCCCCNc1cnc(C(=O)Nc2cccc(O)c2)cn1 [Compound 2f, N-(3-hydroxyphenyl)-5-(octylamino)pyrazine-2-carboxamide] | > 125 | > 125 | > 125 | > 125 | > 125 | > 125 | > 125 | > 125 | > 125 | > 125 | > 125 | > 125 | > 125 | > 125 | ≥ 500 | > 125 | > 125 | > 125 | > 125 | 223 to 225.9 | MIC ([11]; 72 h): > 125 µM; MIC ([11]; 120 h): > 125 µM; MIC [12]: ≥ 500 µg/mL; MIC ([13]; 24 h): > 125 µM; MIC ([13]; 48 h): > 125 µM; MIC ([14]; ATCC204305, 24 h): > 125 µM; MIC ([14]; ATCC204305, 48 h): > 125 µM; MIC ([15]; 24 h): > 125 µM; MIC ([15]; 48 h): > 125 µM; IC50 (HepG2 cells): > 50 µM; MIC [16]: 250 µg/mL (≈ 730 µM); MIC ([17]; CCM8363, 24 h): > 125 µM; MIC ([17]; CCM8363, 48 h): > 125 µM; MIC ([18]; 24 h): > 125 µM; MIC ([18]; 48 h): > 125 µM; MIC ([19]; 24h): > 125 µM; MIC ([19]; 48h): > 125 µM
4 | CCCCNc1cnc(C(=O)Nc2cccc(C(F)(F)F)c2)cn1 [Compound 1b, 5-(Butylamino)-N-(3-(trifluoromethyl)phenyl)pyrazine-2-carboxamide] | > 500 | > 500 | > 125 | > 125 | > 125 | > 125 | > 500 | > 500 | > 500 | > 500 | > 500 | > 500 | > 500 | > 500 | 3.13 | > 500 | > 500 | > 125 | > 125 | 141 to 142 | MIC ([8]; MIC converted to µM): 9.24 µM; MIC ([11]; 72 h): > 500 µM; MIC ([11]; 120 h): > 500 µM; MIC [12]: 6.25 µg/mL (≈ 18.5 µM); MIC ([13]; 24 h): > 125 µM; MIC ([13]; 48 h): > 125 µM; MIC ([14]; ATCC204305, 24 h): > 125 µM; MIC ([14]; ATCC204305, 48 h): > 125 µM; MIC ([15]; 24 h): > 125 µM; MIC ([15]; 48 h): > 125 µM; IC50 (HepG2 cells): 126 µM; SI, selectivity index (HepG2 cells): 14 and 13.6; MIC [16]: 3.13 µg/mL (≈ 9.25 µM); MIC ([17]; CCM8363, 24 h): > 125 µM; MIC ([17]; CCM8363, 48 h): > 125 µM; MIC ([18]; 24 h): > 125 µM; MIC ([18]; 48 h): > 125 µM; MIC ([19]; 24h): > 500 µM; MIC ([19]; 48h): > 500 µM
